Data from patent publication US11299496B2, “Ligands for alpha-7 nicotinic acetylcholine receptors and methods of treating neurological and inflammatory conditions” (Northeastern University, priority 2014, dated 2022).

Tests used:
[1] = molecular target: T1, human alpha-7 nAChR (Homo sapiens, UniProt P36544); assay: Electrophysiological evaluation of PAMs and ago-PAMs in Xenopus oocytes (direct activation, direct and primed potentiation); type: cell-based
T1 construct: expressed in transfected cells; host or cells: Xenopus laevis oocytes (cRNA injection)
T1 sequence (P36544 23-502): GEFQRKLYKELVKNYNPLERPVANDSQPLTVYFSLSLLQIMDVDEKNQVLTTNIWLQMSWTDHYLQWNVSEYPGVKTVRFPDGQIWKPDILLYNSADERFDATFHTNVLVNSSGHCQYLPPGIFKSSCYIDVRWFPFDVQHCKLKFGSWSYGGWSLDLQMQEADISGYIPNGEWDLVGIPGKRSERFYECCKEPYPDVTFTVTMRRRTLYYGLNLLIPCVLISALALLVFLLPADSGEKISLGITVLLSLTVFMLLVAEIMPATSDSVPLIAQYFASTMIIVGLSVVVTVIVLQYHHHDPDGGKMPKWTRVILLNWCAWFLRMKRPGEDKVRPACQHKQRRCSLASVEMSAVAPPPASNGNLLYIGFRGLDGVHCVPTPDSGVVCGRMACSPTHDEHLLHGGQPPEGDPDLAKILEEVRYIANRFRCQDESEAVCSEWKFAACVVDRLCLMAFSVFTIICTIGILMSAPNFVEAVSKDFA
Text: Electrophysiological evaluation in Xenopus oocytes was used to determine the potency and efficacy with which PAMs and ago-PAMs of the invention produce self-induced agonism and positive allosteric modulation of the orthosteric, agonist-induced activation of the alpha-7 nAChR. The ability of these compounds to increase the maximal channel influx and to enhance the activity of the receptor on its own as well as in presence of choline is denoted by Imax and EC50 respectively. The details of cDNA clones and RNA for injection was as published. Thakur et. al. 2013, J. Med. Chem. 2013 Nov. 14; 56(21):8943-7. doi: 10.1021/jm401267t). For experiments involving PAM and ago-PAM analogs, where standard levels of expression result in ion currents too large to be recorded in voltage clamp, experiments were typically conducted 1-3 days after RNA injection.
Two-electrode voltage clamp was conducted using OpusXpress 6000A (Molecular Devices, Union City, Calif.). Both the voltage and current electrodes were filled with 3 M KCl. Oocytes were voltage-clamped at −60 mV except when determining the effect of voltage on channel activation. The oocytes were bath-perfused with Ringer's solution (115 mM NaCl, 2.5 mM KCl, 1.8 mM CaCl2, 10 mM HEPES, and 1 μM atropine, pH 7.2) with a flow rate of 2 mL/min. To evaluate the effects of experimental compounds on ACh-evoked responses of alpha-7 nAChRs expressed in oocytes, the initial control responses were measured with two applications of ACh alone, before applications of experimental drugs alone or co-applications with ACh. The agonist solutions were applied from a 96-well plate via disposable tips, and the drugs were either co-applied with ACh by the OpusXpress pipette delivery system or bath-applied using the OpusXpress system to switch the running buffer. Drug applications were for 12 s followed by a 181 s washout period and usually alternated between controls and test solutions. After experimental drug applications, follow-up control applications of ACh were made to determine primed potentiation, desensitization or rundown of the receptors. Data were collected at 50 Hz, filtered at 20 Hz, analyzed by Clampfit 9.2 (Molecular Devices) and Excel (Microsoft, Redmond Wash.), and normalized to the averaged current of the two initial control responses. Data were expressed as mean±SEM from at least four oocytes for each experiment. For the concentration-response relationships, responses were normalized to the net charge of the most adjacent prior control.
A detailed comparative activity profile of select ago-PAMs/PAMs based on the structure of 4BP-TQS was obtained. […] They also functioned as direct PAMs, producing responses when co-applied with ACh. However, the primed potentiation of response to ACh alone was less after direct potentiation than after direct activation, due to residual induction of PAM-insensitive desensitization.

[2] = molecular target: T1, human alpha-7 nAChR; assay: Two-electrode voltage clamp of alpha-7 nAChR expressed in Xenopus oocytes (net charge); type: cell-based; settings: for Charge Alone: compound alone acting as an allosteric agonist; for Charge Alone / Charge +C: area under the curve of current vs. time; for Charge +C: compound together with choline or ACh, includes PAM and ago-PAM activity; for 'ago' component / ago-PAM activity: in words
Method in brief: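 Human α7 nAChR co-expressed with RIC-3 in Xenopus oocytes; two-electrode clamp at −60 mV, 12 s applications in Ringer's pH 7.3. Net charge integrated over 120 s from application, normalized to prior ACh controls; measured for compound alone and with choline or ACh; n≥4 oocytes.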

| SMILES | Charge Alone [2] | Charge +C [2] | also measured |
| --- | --- | --- | --- |
| CC(C)(C)OC(=O)Nc1ccc([C@H]2Nc3ccc(S(N)(=O)=O)cc3[C@H]3C=CC[C@H]32)cc1 [Compound 24] | 212 | 580 | types of activity (direct activation, direct potentiation, primed potentiation) [1]: exhibited all three types of activities; 'ago' component / ago-PAM activity [2]: increased ‘ago’ component |
| CC(C)(C)NC(=O)Oc1ccc([C@H]2Nc3ccc(S(N)(=O)=O)cc3[C@H]3C=CC[C@H]32)cc1 (stereo in doubt) [Compound 65, 4-(8-sulfamoyl-3a,4,5,9b-tetrahydro-3H-cyclopenta[c]quinolin-4-yl)phenyl tert-butylcarbamate] | 332 | 740 | effectiveness as ago-PAM compared to GAT154 [1]: almost equally effective as ago-PAMs; effectiveness as allosteric agonist compared to GAT154 [1]: more effective as allosteric agonists |
| NS(=O)(=O)c1ccc2c(c1)[C@H]1C=CC[C@H]1[C@@H](c1ccc(OCc3ccccc3)cc1)N2 [Compound 50, (3aR,4S,9bS)-4-(4-(benzyloxy)phenyl)-3a,4,5,9b-tetrahydro-3H-cyclopenta[c]quinoline-8-sulfonamide] | 20 | 67 | 'ago' component / ago-PAM activity [2]: moderate ago-PAM activity |
| NS(=O)(=O)c1ccc2c(c1)C1C=CCC1C(c1ccc(C(=O)O)cc1)N2 (centres unmarked) [Compound 58, 4-(8-sulfamoyl-3a,4,5,9b-tetrahydro-3H-cyclopenta[c]quinolin-4-yl)benzoic acid] | Inactive | Inactive | – |
| [N-]=[N+]=Nc1c(F)c(F)c([C@H]2Nc3ccc(S(N)(=O)=O)cc3[C@H]3C=CC[C@H]32)c(F)c1F [Compound 43, (3aR,4S,9bS)-4-(4-azido-2,3,5,6-tetrafluorophenyl)-3a,4,5,9b-tetrahydro-3H-cyclopenta[c]quinoline-8-sulfonamide] | – | 5.5 | – |
| NS(=O)(=O)c1ccc2c(c1)[C@H]1C=CC[C@H]1[C@@H](c1ccc(-c3ccccc3)cc1)N2 (stereo in doubt) [Compound 12, 4-([1,1′-biphenyl]-4-yl)-3a,4,5,9b-tetrahydro-3H-cyclopenta[c]quinoline-8-sulfonamide] | – | 76 | – |
| CC(C)(C)CC(=O)Nc1ccc([C@H]2Nc3ccc(S(N)(=O)=O)cc3[C@H]3C=CC[C@H]32)cc1 (stereo in doubt) [Compound 64, 3,3-dimethyl-N-(4-(8-sulfamoyl-3a,4,5,9b-tetrahydro-3H-cyclopenta[c]quinolin-4-yl)phenyl)butanamide] | 597 | 652 | effectiveness as ago-PAM compared to GAT154 [1]: almost equally effective as ago-PAMs; effectiveness as allosteric agonist compared to GAT154 [1]: more effective as allosteric agonists |
| Nc1ccc([C@H]2Nc3ccc(S(N)(=O)=O)cc3[C@H]3C=CC[C@H]32)cc1 (stereo in doubt) [Compound 18, 4-(4-aminophenyl)-3a,4,5,9b-tetrahydro-3H-cyclopenta[c]quinoline-8-sulfonamide] | – | 250 | – |
| NS(=O)(=O)c1ccc2c(c1)[C@H]1C=CC[C@H]1[C@@H](c1ccc([N+](=O)[O-])cc1)N2 (stereo in doubt) [Compound 8, 4-(4-nitrophenyl)-3a,4,5,9b-tetrahydro-3H-cyclopenta[c]quinoline-8-sulfonamide] | 43 | 318 | – |
| O=S(=O)(c1ccc2c(c1)[C@@H]1C=CC[C@@H]1[C@H](c1ccc(Br)cc1)N2)N1CCCC1 [Compound 56, (3aS,4R,9bR)-4-(4-bromophenyl)-8-(pyrrolidin-1-ylsulfonyl)-3a,4,5,9b-tetrahydro-3H-cyclopenta[c]quinolone] | Inactive | Inactive | – |
| [N-]=[N+]=Nc1ccc([C@H]2Nc3ccc(S(N)(=O)=O)cc3[C@H]3C=CC[C@H]32)cc1 [Compound 48, (3aR,4S,9bS)-4-(4-azidophenyl)-3a,4,5,9b-tetrahydro-3H-cyclopenta[c]quinoline-8-sulfonamide] | 61 | 764 | – |
| CCOC(=O)Nc1ccc([C@H]2Nc3ccc(S(N)(=O)=O)cc3[C@H]3C=CC[C@H]32)cc1 (stereo in doubt) [Compound 60, ethyl(4-(8-sulfamoyl-3a,4,5,9b-tetrahydro-3H-cyclopenta[c]quinolin-4-yl)phenyl)carbamate] | – | 276 | – |
| NS(=O)(=O)c1ccc2c(c1)[C@H]1OCC[C@H]1[C@@H](c1ccc(Br)cc1)N2 (stereo in doubt) [Compound 3, 4-(4-bromophenyl)-2,3,3a,4,5,9b-hexahydrofuro[3,2-c]quinoline-8-sulfonamide] | Inactive | Inactive | – |
| NS(=O)(=O)c1ccc2c(c1)[C@H]1C=CC[C@H]1[C@@H](c1ccc(NC(=O)OC34CC5CC(CC(C5)C3)C4)cc1)N2 (stereo in doubt) [Compound 62, adamantan-1-yl (4-(8-sulfamoyl-3a,4,5,9b-tetrahydro-3H-cyclopenta[c]quinolin-4-yl)phenyl)carbamate] | – | 35 | – |
| COC(=O)Nc1ccc([C@H]2Nc3ccc(S(N)(=O)=O)cc3[C@H]3C=CC[C@H]32)cc1 [Compound 59, methyl(4-(8-sulfamoyl-3a,4,5,9b-tetrahydro-3H-cyclopenta[c]quinolin-4-yl)phenyl)carbamate] | – | 480 | – |

Now from value to compound, other results behind:

| Charge Alone [2] | Charge +C [2] | SMILES | also measured |
| --- | --- | --- | --- |
| 1 | 284 | NS(=O)(=O)c1ccc2c(c1)[C@H]1C=CC[C@H]1[C@@H](c1ccc(CCCBr)cc1)N2 [Compound 71, 4-(4-(3-bromopropyl)phenyl)-3a,4,5,9b-tetrahydro-3H-cyclopenta[c]quinoline-8-sulfonamide] | – |
| Inactive | Inactive | C=C(C)CNS(=O)(=O)c1ccc2c(c1)[C@H]1C=CC[C@H]1[C@@H](c1ccc(Br)cc1)N2 (stereo in doubt) [Compound 108, 4-(4-bromophenyl)-N-(2-methylallyl)-3a,4,5,9b-tetrahydro-3H-cyclopenta[c]quinoline-8-sulfonamide] | – |
| Inactive | Inactive | CCCNS(=O)(=O)c1ccc2c(c1)[C@H]1C=CC[C@H]1[C@@H](c1ccccc1)N2 (stereo in doubt) [Compound 112, 4-phenyl-N-propyl-3a,4,5,9b-tetrahydro-3H-cyclopenta[c]quinoline-8-sulfonamide] | – |
| 25 | 582 | CC(C)(C)CC(=O)Oc1ccc([C@H]2Nc3ccc(S(N)(=O)=O)cc3[C@H]3C=CC[C@H]32)cc1 (stereo in doubt) [Compound 69, 4-(8-sulfamoyl-3a,4,5,9b-tetrahydro-3H-cyclopenta[c]quinolin-4-yl)phenyl 3,3-dimethylbutanoate] | – |
| 29 | 348 | NS(=O)(=O)c1ccc2c(c1)[C@H]1C=CC[C@H]1[C@@H](c1ccc(Br)nc1)N2 [Compound 94, 4-(6-bromopyridin-3-yl)-3a,4,5,9b-tetrahydro-3H-cyclopenta[c]quinoline-8-sulfonamide] | – |
| Inactive | Inactive | CCCNS(=O)(=O)c1ccc2c(c1)[C@H]1C=CC[C@H]1[C@H](c1c(C)c(C)cc(C)c1C)N2 (stereo in doubt) [Compound 111, N-propyl-4-(2,3,5,6-tetramethylphenyl)-3a,4,5,9b-tetrahydro-3H-cyclopenta[c]quinoline-8-sulfonamide] | – |
| 7 | 357 | NS(=O)(=O)c1ccc2c(c1)[C@H]1C=CC[C@H]1[C@@H](c1ccc(Br)cn1)N2 (stereo in doubt) [Compound 97, 4-(5-bromopyridin-2-yl)-3a,4,5,9b-tetrahydro-3H-cyclopenta[c]quinoline-8-sulfonamide] | – |
| Inactive | Inactive | CC(C)NS(=O)(=O)c1ccc2c(c1)[C@H]1C=CC[C@H]1[C@@H](c1ccc(Br)cc1)N2 (stereo in doubt) [Compound 100, 4-(4-bromophenyl)-N-isopropyl-3a,4,5,9b-tetrahydro-3H-cyclopenta[c]quinoline-8-sulfonamide] | – |
